This note sets out measurements from patent US9206192B2, “Trolox derivative-modified fat-soluble anti-cancer pharmaceutical compounds, preparations, preparing methods and use thereof” (CHIA TAI TIANQING PHARMACEUTICAL GROUP CO., LTD, priority 2011, dated 2015).

What all share (assay type): cell-based
Test [1] relates to human ovarian cancer cells (A2780s). The experiment in a line: In vitro cytotoxicity test, MTT assay, ovarian cancer cells. The note with it: 72 h incubation, read-out: GI50 Ovarian cancer cell (A2780s). On the procedure:
(§1) In this example, GI50 values (the concentration of a drug that inhibits the growth of cancer cells by 50%) of the novel anti-cancer pharmaceutical compounds of the present invention on the inhibition of human ovarian cancer cells (A2780s), colon cancer cells (HT-29), liver cancer HePG2 cells and lung cancer cells (A549) were determined by MTT assay, and further compared with that of anti-cancer drug irinotecan to evaluate in vitro cytotoxicity of the pharmaceutical compounds of the present invention.
(§2) MTT assay: Cells in logarithmic growth phase were seeded in 96-well culture plate at 100 μL/well and a cell density of 10^5/mL. After the cells were incubated for 18 h, the medium was replaced, and thereto the test compound samples with different concentrations were then added at 150 μL/well. The blank group was the wells to which only a RPMI 1640 culture medium comprising 10% fetal bovine serum was added without the addition of cells (for zero setting). The negative control group was the wells to which the equal volume of RPMI 1640 culture medium comprising 10% fetal bovine serum was added and the positive control group was the wells to which the equal volume of 13 μg/ml positive drug was added. Each group had three wells. After the cells were incubated for 72 h, MTT (5 mg/mL) solution was added at 15 μL/well, and the cells were further incubated for 4 h. The supernatant was discarded, and DMSO was added at 150 μL/well. The mixture was shaken and blended for 10 min. After the crystal was completely dissolved, the absorbance (D) value of each well was detected on microplate reader at a wavelength of 490 nm. The cell growth inhibition rate was calculated according to the following equation: Cell growth inhibition rate=(1−average D value of test group/average D value of control group)×100%.
On the technique in general: Formazan colour is commonly taken as a measure of viable cells.

The test system of a further test is lung cancer cells (A549). The experiment in a line: In vitro cytotoxicity test, MTT assay, lung cancer cells. Conditions: Homo sapiens, 72 h incubation. How it is done: as §1, §2
In test [2] the test system is colon cancer cells (HT-29). The experiment in a line: In vitro cytotoxicity test, MTT assay, colon cancer cells. Conditions: Homo sapiens, 72 h incubation. How it is done: as §1
as §2, with “After the cells were incubated for 72 h, MTT (5 mg/mL) solution was added at 15 μL/well, and the cells were further incubated for 4 h. The supernatant was discarded, and DMSO was added at 150 μL/well. The mixture was shaken and blended for 10 min.” left out, “The cell growth inhibition rate was calculated according to the following equation: Cell growth inhibition rate=(1−average D value of test group/average D value of control group)×100%.” left out

In the next test the test system is liver cancer HePG2 cells. The test is described as follows: In vitro cytotoxicity test, MTT assay, liver cancer cells. The note with it: Homo sapiens, 72 h incubation, read-out: GI50 Live cancer cells (HePG2). How it is done: as §1
as §2, with “After the cells were incubated for 72 h, MTT (5 mg/mL) solution was added at 15 μL/well, and the cells were further incubated for 4 h. The supernatant was discarded, and DMSO was added at 150 μL/well. The mixture was shaken and blended for 10 min.” left out, “The cell growth inhibition rate was calculated according to the following equation: Cell growth inhibition rate=(1−average D value of test group/average D value of control group)×100%.” left out

In general, GI50 refers to the concentration that inhibits growth by half. Regarding `CCCCCCOC(=O)[C@@]1(C)CCc2c(C)c(OC(=O)CCC(=O)Oc3ccc4nc5c(c(CC)c4c3)Cn3c-5cc4c(c3=O)COC(=O)[C@]4(O)CC)c(C)c(C)c2O1` [MXL-001, 7-ethyl-10-hydroxycamptothecin R-(+)-6-hydroxy-2,5,7,8-tetramethylchroman-2-carboxylic acid n-hexyl ester-6-succinate], the results for the GI50 (in test [1]; in the test on lung cancer cells (A549)) were 40.9 nM and 4600 nM, respectively.
`CCc1c2c(nc3ccc(OC(=O)N4CCC(N5CCCCC5)CC4)cc13)-c1cc3c(c(=O)n1C2)COC(=O)[C@]3(O)CC` [Irinotecan, irinotecan, reference compound]: the GI50 in test [1] was found to be 19300 nM; in test [2] it was 15200 nM; in the test on liver cancer HePG2 cells, 9440 nM; with lung cancer cells (A549), 58.1 nM.
`CCCCCCCCCCCCOC(=O)[C@@]1(C)CCc2c(C)c(OC(=O)CCC(=O)Oc3ccc4nc5c(c(CC)c4c3)Cn3c-5cc4c(c3=O)COC(=O)[C@]4(O)CC)c(C)c(C)c2O1` [MXL-002, 7-ethyl-10-hydroxycamptothecin R-(+)-6-hydroxy-2,5,7,8-tetramethylchroman-2-carboxylic acid dodecyl ester-6-succinate]: the values for the GI50 (in test [1]; in the test with lung cancer cells (A549)) were 17.8 nM and 2100 nM, respectively.
With `CCCCCCCCCCCCCCCCOC(=O)[C@@]1(C)CCc2c(C)c(OC(=O)CCC(=O)Oc3ccc4nc5c(c(CC)c4c3)Cn3c-5cc4c(c3=O)COC(=O)[C@]4(O)CC)c(C)c(C)c2O1` [MXL-003, 7-ethyl-10-hydroxycamptothecin R-(+)-6-hydroxy-2,5,7,8-tetramethylchroman-2-carboxylic acid hexadecyl ester-6-succinate], the GI50 in test [1] stood at 16.9 nM; in test [2], 45 nM; with liver cancer HePG2 cells, 164 nM; with lung cancer cells (A549), 169 nM.
